The text below walks through data of patent US8754241B2, “Organic compound and electrochromic element having the same” (Canon Kabushiki Kaisha, priority 2012, dated 2014).

As usually defined, the solubility is the concentration that dissolves in the medium under given conditions.

The structures appear in SMILES notation. In brackets after ≈: the same amount, converted by molar mass.

What all share (format): physicochemical
A short description of data set [1]: oxidation absorption spectrum / change in transmittance on constant potential oxidation. The note with it: for shape and wavelength of the oxidation absorption peak with concentration (π-dimer formation): 5.0×10^−4 or 1.7×10^−4 mol/L; for transmittance after oxidation / light absorption peak in the oxidized state: constant potential oxidation at +0.9 V (vs. Ag/Ag+); for transmittance after oxidation: at the absorption peak. The procedure: For the measurement of an oxidation absorption spectrum, platinum was used for a working electrode, platinum was used for a counter electrode, silver was used for a reference electrode, and a dichloromethane solution was used in which tetrabutylammonium perchlorate (0.1 mol/l) as a supporting electrolyte and each of the above compounds (5.0×10^−4 or 1.7×10^−4 mol/L) were dissolved.
In this solution, constant potential oxidation at +0.9 V (vs. Ag/Ag+), which was equal to or more than the oxidation potential of the compound, was performed, and the change in transmittance was measured.
The measurement of the oxidation absorption spectrum of the obtained compound D-11 was performed as in Example 4 using a dichloromethane solution in which tetrabutylammonium perchlorate (0.1 mol/L) and D-11 (5.0×10^−4 mol/L) were dissolved. […] This oxidation colored state was again returned to a colorless and transparent state by reduction, and the electrochromic characteristics in conformity with oxidation-reduction were confirmed. In addition, since the shape and the absorption wavelength of this oxidation absorption peak were not changed with the concentration, it was shown that as in Example 4, the formation of π-dimers was suppressed.

The nature of data set [2]: oxidation-reduction cycle durability test (cyclic voltammetry). The note with it: dichloromethane; for change in oxidation peak current after 20,000 oxidation-reduction cycles (in words): 20,000 cycles; for Rate of Change in Oxidation Peak Current after Oxidation-Reduction Cycles for 20,000 Times: tetrabutylammonium perchlorate 0.1 mol/L, compound 1.0×10^−4 mol/L, initial current = 100%. The procedure: For the durability measurement, glassy carbon was used for a working electrode, platinum was used for a counter electrode, silver was used for a reference electrode, and a dichloromethane solution was used in which tetrabutylammonium perchlorate (0.1 mol/L) as a supporting electrolyte and each of the above compounds (1.0×10^−4 mol/L) were dissolved.
In this solution, a square-wave potential program including constant potential oxidation at +0.8 V (B-2 and B-1) or +1.2 V (XX-4) (vs. Ag/Ag^+), each of which was equal to or more than the oxidation potential of the corresponding compound, for 3 seconds and subsequent constant potential reduction at 0 V (vs. Ag/Ag^+) for 3 seconds was repeatedly performed 20,000 times.
The changes in oxidation peak current in cyclic voltammetry (CV) measurement before and after the oxidation-reduction cycles for 20,000 times are shown in Table.
In this table, the “rate of change in oxidation peak current” indicates a value obtained by adding the change in current from the initial current (represented by 100%) to the initial current.

The nature of data set [3]: ultraviolet-visible absorption spectrum in the neutral state, chloroform solution. How it is done: The exemplary compound B-2 thus obtained was dissolved in chloroform, and the absorption spectrum of this solution measured by using an ultraviolet-visible spectrophotometer (V-560 manufactured by JASCO Corporation) is shown in FIG. 2.
A short description of data set [4]: solubility in propylene carbonate solution of supporting electrolyte. The note with it: propylene carbonate solution of LiCO4 (0.1 mol/L), organic solvent or mixture. How it is done: In addition, as one example of the element solvent, the solubility of the compound D-11 in a propylene carbonate solution of LiCO4 (supporting electrolyte, 0.1 mol/L) was confirmed. According to the result, it was confirmed that this compound was dissolved at a concentration of 9 mmol/L and that the solubility thereof was higher than the solubility (6 mmol/L) of the compound B-2 of Example 1. The reason for this is believed that since having an ester group-containing phenyl group at the 3-position of DTT, the compound D-11 has an improved solubility into propylene carbonate, which is a polar solvent.

With `COc1cccc(OC)c1-c1sc2c(sc3c(-c4ccccc4)c(-c4c(OC)cccc4OC)sc32)c1-c1ccccc1` [B-1], in data set [1], the “shape and wavelength of the oxidation absorption peak with concentration (π-dimer formation)” value (from here on “shape and wavelength”) was “not changed”; the transmittance after oxidation is given as 20.3%. For the same molecule, the “light absorption peak in the oxidized state” value in data set [1] (dichloromethane) is “approximately 510 nm”. In addition, the “transmittance in the bleached state before oxidation” value in data set [1] (over the entire visible light region, dichloromethane) was “approximately 100%”. Further, in data set [2], the “change in oxidation peak current after 20,000 oxidation-reduction cycles (in words)” value is reported as “hardly observed” and the “Rate of Change in Oxidation Peak Current after Oxidation-Reduction Cycles for 20,000 Times” value is 98%. In data set [3], the “absorption in the visible light region” value is reported as “no absorption over the entire visible light region” and the “λ max at which the absorption peak showed the maximum intensity” value (“λ max” for short) was 309.5 nm.

`COc1cccc(OC(C)C)c1-c1sc2c(sc3c(-c4ccccc4)c(-c4c(OC)cccc4OC(C)C)sc32)c1-c1ccccc1` [B-2]: the “shape and wavelength” value in data set [1] is recorded as “not changed”. Further, in data set [2], the “change in oxidation peak current after 20,000 oxidation-reduction cycles (in words)” value was “hardly observed” and the “Rate of Change in Oxidation Peak Current after Oxidation-Reduction Cycles for 20,000 Times” value was 101%. Also, in data set [3], the “absorption in the visible light region” value was “no absorption over the entire visible light region” and the “λ max” value was found to be 307.5 nm. Moreover, in data set [4], the solubility was 6 mM (≈ 4060 µg/mL).

In the case of `COC(=O)c1ccc(-c2c(-c3c(OC)cccc3OC(C)C)sc3c2sc2c(-c4ccc(C(=O)OC)cc4)c(-c4c(OC)cccc4OC(C)C)sc23)cc1` [D-11], in data set [1], the “shape and wavelength” value is on record as “not changed”; the transmittance after oxidation was 36.3%. In addition, in data set [1] (dichloromethane), the “light absorption peak in the oxidized state” value is on record as 541.5 nm. For the same molecule, in data set [3], the “absorption in the visible light region” value was “no absorption over the entire visible light region” and the “λ max” value was 316.0 nm. In addition, the solubility in data set [4] is 9 mM (≈ 7140 µg/mL).

For the molecule `CC(C)(C)c1cc2sc3cc(C(C)(C)C)sc3c2s1` [XX-4, reference compound], in data set [2], the “change in oxidation peak current after 20,000 oxidation-reduction cycles (in words)” value is listed as “decreased” and the “Rate of Change in Oxidation Peak Current after Oxidation-Reduction Cycles for 20,000 Times” value stood at 81%.
